From patent US10238658B2, “1-pyrazolyl-3-(4-((2-anilinopyrimidin-4-yl) oxy) napththalen-1-yl) ureas as p38 MAP kinase inhibitors” (Respivert Limited, priority 2011, dated 2019)

Key:
ICAM-1 = experiment: Rhinovirus-induced ICAM-1 expression in BEAS2B cells; assay type: cell-based; conditions: Homo sapiens, BEAS-2B, read-out: IC50 Values for HRV Stimulated Release/Expression ICAM1 (BEAS2B)
Method: Human rhinovirus RV16 was obtained from the American Type Culture Collection (Manassas, Va.). Viral stocks were generated by infecting Hela cells with HRV until 80% of the cells were cytopathic.
BEAS2B cells were infected with HRV at an MOI of 5 and incubated for 2 hr at 33° C. with gentle shaking for to promote absorption. The cells were then washed with PBS, fresh media added and the cells were incubated for a further 72 hr. The supernatant was collected for assay of IL-8 concentrations using a Duoset ELISA development kit (R&D systems, Minneapolis, Minn.).
The level of cell surface ICAM-1 expression was determined by cell-based ELISA. At 72 hr after infection, cells were fixed with 4% formaldehyde in PBS. After quenching endogenous peroxidase by adding 0.1% sodium azide and 1% hydrogen peroxide, wells were washed with wash-buffer (0.05% Tween in PBS: PBS-Tween). […] The ICAM-1 signal was detected by adding substrate and reading at 450 nm with a reference wavelength of 655 nm using a spectrophotometer. The wells were then washed with PBS-Tween and total cell numbers in each well were determined by reading absorbance at 595 nm after Crystal Violet staining and elution by 1% SDS solution. The measured OD450-655 readings were corrected for cell number by dividing with the OD595 reading in each well. […]

IL-8 [1] = experiment: LPS-stimulated IL-8 production in sputum macrophages from COPD; assay type: cell-based; conditions: Homo sapiens, Macrophage
Method: (§1) Patients with COPD were inhaled with a nebulised solution of 3% (w/v) hypertonic saline using an ultrasonic nebuliser (Devilbiss, Carthage, Mo.) with tidal breathing for 5 min. This procedure was repeated a maximum of three times until enough sputum was obtained. The sputum samples were homogenized and mixed vigorously using a vortex mixer in 0.02% v/v dithiothreitol (DTT) solution. The samples were re-suspended in PBS (40 mL) followed by centrifugation at 1500 rpm at 4° C. for 10 min to obtain sputum cell pellets. The pellets were washed twice with PBS (40 mL). The sputum cells were then re-suspended in macrophage serum-free medium (macrophage-SFM, Life technologies, Paisley, UK; to achieve 2×10^6/well in a 24 well plate) containing 20 U/mL penicillin, 0.02 mg/mL streptomycin and 5 μg/mL amphotericin B and seeded on high bound 96-well plate, followed by incubation for 2 hr at 37° C. and at 5% CO2 to allow the macrophages to attach to the bottom of the plate. The cells on the plate were washed with fresh macrophage-SFM (200 μL/well) to remove neutrophils and other contaminated cells. The adherent cells (mainly sputum macrophages) on the plate were used for further analysis. Sputum induction and isolation were conducted in Quintiles Drug Research Unit at Guys Hospital and ethics approval and written informed consent was obtained by Quintiles.
(§2) Where appropriate, 1 μL of a solution containing either the test compound or reference article at the stated concentrations or alternatively 1 μL of DMSO as the vehicle control was added to each well (200 μL in media) and the cells were incubated for 2 hr. […] After washing with 200 uL wash buffer per well, the beads were resuspended in sheath fluid (150 μL) and analyzed immediately. The level of each analyte in the supernatant was calculated using Xcel Fit software with a 4 or 5-parameter equation using each standard curve. The inhibitions of each cytokine production were calculated at each concentration by comparison with vehicle control. The IC50 values were determined from concentration-inhibition curves using XL-Fit (idbs, Guildford, UK)

MIP1α = experiment: LPS-stimulated MIP1α production in sputum macrophages from COPD; assay type: cell-based; conditions: Homo sapiens, Macrophage
Method: as §1, §2

IL-8 [2] = experiment: TNFα-stimulated IL-8 production in primary bronchial epithelial cells from COPD; assay type: cell-based; conditions: Homo sapiens, Epithelial cell
Method: Primary airway epithelial cells obtained from patients with COPD were purchased from Asterand (Royston, UK), and maintained in bronchial epithelial cell growth media that was prepared by mixing together LHC8 (lnvitrogen) (500 mL), with LHC9 (Invitrogen) (500 mL) and 3 μL of retinoic acid solution (5 mg/mL in neat DMSO. The media was removed by aspiration and fresh BEGM (200 μL) was added to each well. Where appropriate, 1 μL of a solution of the test compound at the state concentrations or 1 μL of DMSO as the vehicle control was added and the cells were incubated for 2 hr. The cells were stimulated with TNFα (50 μL; final concentration 50 ng/mL) and then incubated for 4 hr at 37° C. and 5% CO2. The supernatant was then collected and kept at −20° C.
The levels of IL-6 and IL-8 were determined by ELISA using R&D Systems' Human IL-6 and IL-8 Duoset® Elisa Kits. The inhibition of IL-6 and IL-8 production was calculated at each concentration by comparison with vehicle control.

CXCL1 (KC) = experiment: Cigarette smoke model: CXCL1 (KC) in BALF; assay type: in vivo, mouse; conditions: mice
Method: A/J mice (males, 5 weeks old) were exposed to cigarette smoke (4% cigarette smoke, diluted with air) for 30 min/day for 11 days using a Tobacco Smoke Inhalation Experiment System for small animals (Model SIS-CS; Sibata Scientific Technology, Tokyo, Japan). Test substances were administered intra-nasally (35 μL of solution in 50% DMSO/PBS) once daily for 3 days after the final cigarette smoke exposure. At 12 hr after the last dosing, each of the animals was anesthetized, the trachea cannulated and bronchoalveolar lavage fluid (BALF) was collected. The numbers of alveolar macrophages and neutrophils were determined by FACS analysis (EPICS® ALTRA II, Beckman Coulter, Inc., Fullerton, Calif., USA) using anti-mouse MOMA2 antibody (macrophage) or anti-mouse 7/4 antibody (neutrophil). BALF was centrifuged and the supernatant was collected. The level of keratinocyte chemoattractant (KC; CXCL1) in BALF was quantitated using a Quentikine® mouse KC ELISA kit (R&D systems, Inc., Minneapolis, Minn., USA).

Work on Cc1ccc(-n2nc(C(C)(C)C)cc2NC(=O)Nc2ccc(Oc3ccnc(Nc4ccccc4)n3)c3ccccc23)cc1 [Example 1, 1-(3-(tert-Butyl)-1-(p-tolyl)-1H-pyrazol-5-yl)-3-(4-(2-(phenylamino)pyrimidin-4-yloxy)naphthalen-1-yl)urea] yielded an IC50 (ICAM-1) of 0.023 nM, an IC50 (IL-8 [1]; COPD patients, LPS) of 68 nM and an Emax at 0.1 µg/mL (IL-8 [1]; read-out: IL-8 E max, sputum macrophage) of 64%. For the same compound, the IC50 (MIP1α; COPD patients, LPS) was 7.5 nM, the Emax at 0.1 µg/mL (MIP1α; read-out: MIP1α E max, sputum macrophage) was 89% and the IC50 (IL-8 [2]; COPD patients, TNFα stimulated) was 0.85 nM. For the same compound, the Emax at 0.1 µg/mL (IL-8 [2]; read-out: IL-8 E max, bronchial epithelial cell) was 100% and the “cigarette smoke induced CXCL1 (KC) production in BALF, effect in words” value (CXCL1 (KC)) was “inhibited”.
